pIC50: −log10 of the molar value.

Chain of human MAT2A enzyme (P31153 whole entry): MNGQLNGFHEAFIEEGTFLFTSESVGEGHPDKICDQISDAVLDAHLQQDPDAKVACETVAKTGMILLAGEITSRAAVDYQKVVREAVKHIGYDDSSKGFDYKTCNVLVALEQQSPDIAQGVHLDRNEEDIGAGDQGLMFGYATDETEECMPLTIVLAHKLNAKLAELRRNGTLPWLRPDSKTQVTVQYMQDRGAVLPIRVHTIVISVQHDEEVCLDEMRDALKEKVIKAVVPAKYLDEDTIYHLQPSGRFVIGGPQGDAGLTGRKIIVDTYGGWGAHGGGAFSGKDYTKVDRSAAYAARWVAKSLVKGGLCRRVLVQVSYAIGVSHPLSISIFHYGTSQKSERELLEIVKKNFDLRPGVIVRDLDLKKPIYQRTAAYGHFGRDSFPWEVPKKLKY

This assay has as its target human MAT2A enzyme (Homo sapiens (Human), UniProt P31153). Kind of assay: In vitro enzymatic inhibition activity assay on MAT2A (PiColorLock phosphate detection). The conditions noted are these: purified human MAT2A 10 nM, ATP 50 μM, L-methionine 100 μM, 6 h at 23° C.; read-out: MAT2A inhibitory activity IC50. In kind it is biochemical. In short, it runs like this:
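IC50 came from an 8-point, 10-fold compound series that reduced phosphate release, measured by absorbance at 630 nm. Reactions ran 6 h at 23 °C with 10 nM human MAT2A, 50 μM ATP and 100 μM L-methionine in pH 7.5 Tris buffer containing Mg2+.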
As for `COC(=O)c1c(N)c2ccc(C(F)(F)F)cc2n(-c2ccc3ccccc3c2)c1=O` [Example 26, methyl 4-amino-1-(naphthalen-2-yl)-2-oxo-7-(trifluoromethyl)-1,2-dihydro quinoline-3-carboxylate], the pIC50 (in general, −log10 of the IC50, conventionally taken in molar units) is 8.98.

Take `N#Cc1c(N)c2ccc(I)cc2n(-c2ccccc2)c1=O` [Example 4, 4-amino-7-iodo-2-oxo-1-phenyl-1,2-dihydroquinolin-3-carbonitrile]: the pIC50 is 8.64.

Regarding `COC(=O)c1c(N)c2ccc(Br)cc2n(Cc2ccccc2)c1=O` [Example 30, methyl 4-amino-1-benzyl-7-bromo-2-oxo-1,2-dihydroquinoline-3-carboxylate], the pIC50 is 8.21.

As to `COC(=O)c1c(N)c2ccc(C(F)F)cc2n(-c2ccc(N)cc2)c1=O` [Example 327, methyl 4-amino-1-(4-aminophenyl)-2-oxo-7-(difluoromethyl)-1,2-dihydro quinoline-3-carboxylate], the negative logarithm of the IC50 (pIC50) is 8.90.

`COC(=O)c1c(N)c2ccc(OC(F)F)cc2n(-c2ccc(C(C)O)cc2)c1=O` (centres unmarked) [Example 335, methyl 4-amino-7-(difluoromethoxy)-1-(4-(1-hydroxyethyl)phenyl)-2-oxo-1,2-dihydroquinoline-3-carboxylate]: the negative-log IC50 (pIC50) was 8.69.

Turning to `COC(=O)c1c(N)c2ccc(C(F)(F)F)cc2n(-c2ccc(OC)cc2C)c1=O` [Example 80, methyl 4-amino-1-(4-methoxy-2-methylphenyl)-2-oxo-7-(trifluoromethyl)-1,2-dihydroquinoline-3-carboxylate], the pIC50 is 8.39.

On to `COC(=O)c1c(N)c2ccc(C(F)(F)F)cc2n(-c2ccc(N)nc2)c1=O` [Example 182, methyl 4-amino-1-(6-aminopyridin-3-yl)-2-oxo-7-(trifluoromethyl)-1,2-dihydroquinoline-3-carboxylate], for which the pIC50 was 8.94.

On to `COC(=O)c1c(N)c2ccc(Br)cc2n(-c2ccc(N)cc2F)c1=O` [Example 259, methyl 4-amino-1-(4-amino-2-fluorophenyl)-7-bromo-2-oxo-1,2-dihydro quinoline-3-carboxylate], for which the negative logarithm of the IC50 (pIC50) was 8.97.

Take `COC(=O)c1c(N)c2ccc(C(F)(F)F)cc2n(-c2ccc(C(C)O)c(F)c2)c1=O` (centres unmarked) [Example 158, methyl 4-amino-1-(3-fluoro-4-(1-hydroxyethyl)phenyl)-2-oxo-7-(trifluoromethyl)-1,2-dihydroquinoline-3-carboxylate]: the pIC50 is 8.42.

For the molecule `COC(=O)c1c(N)c2ccc(OC(F)F)cc2n(-c2ccc([C@@H](C)O)cc2)c1=O` [Example 354, methyl (R)-4-amino-7-(difluoromethoxy)-1-(4-(1-hydroxyethyl)phenyl)-2-oxo-1,2-dihydroquinoline-3-carboxylate], the negative logarithm of the IC50 (pIC50) was 9.34.

In the case of `COC(=O)c1c(N)c2ccc(Br)cc2n(-c2ccc3nccnc3c2)c1=O` [Example 220, methyl 4-amino-7-bromo-2-oxo-1-(quinoxalin-6-yl)-1,2-dihydroquinoline-3-carboxylate], the negative logarithm of the IC50 (pIC50) is 8.68.

As for `COC(=O)c1c(N)c2ccc(Br)nc2n(-c2ccc(N)cc2C)c1=O` [Example 304, methyl 4-amino-1-(4-amino-2-methylphenyl)-7-bromo-2-oxo-1,2-dihydro-1,8-naphthyridine-3-carboxylate], the pIC50 is 8.64.

`COC(=O)c1c(N)c2ccc(C(F)(F)F)cc2n(-c2ccc(OC(F)F)cc2)c1=O` [Example 63, methyl 4-amino-1-(4-(difluoromethoxy)phenyl)-2-oxo-7-(trifluoromethyl)-1,2-dihydroquinoline-3-carboxylate]: the pIC50 was 8.80.

As to `COC(=O)c1c(N)c2ccc(C(F)(F)F)cc2n(-c2ccc(N)cc2C)c1=O` [Example 237, methyl 4-amino-1-(4-amino-2-methylphenyl)-2-oxo-7-(trifluoromethyl)-1,2-dihydroquinoline-3-carboxylate], the negative logarithm of the IC50 (pIC50) was 8.79.

In the case of `COC(=O)c1c(N)c2ccc(Br)cc2n(-c2cccc(N)c2)c1=O` [Example 284, methyl 4-amino-1-(3-aminophenyl)-7-bromo-2-oxo-1,2-dihydroquinoline-3-carboxylate], the pIC50 is 8.61.

As to `C=Cc1ccc2c(N)c(C(=O)OC)c(=O)n(-c3ccccc3)c2c1` [Example 24, methyl 4-amino-7-vinyl-2-oxo-1-phenyl-1,2-dihydroquinoline-3—carboxylate], the negative-log IC50 (pIC50) was 8.63.

On to `COC(=O)c1c(N)c2ccc(Br)nc2n(-c2ccc(I)cc2)c1=O` [Example 275, methyl 4-amino-7-bromo-1-(4-iodophenyl)-2-oxo-1,2-dihydro-1,8-naphthyridine-3-carboxylate], for which the pIC50 was 9.82.

For the molecule `COC(=O)c1c(N)c2ccc(C3CC3)nc2n(-c2ccc(N)cc2)c1=O` [Example 373, methyl 4-amino-1-(4-aminophenyl)-7-cyclopropyl-2-oxo-1,2-dihydro-1,8-naphthyridine-3-carboxylate], the negative logarithm of the IC50 (pIC50) is 8.98.

On to `COC(=O)c1c(N)c2ccc(C3CC3)cc2n(-c2ccc([C@@H](C)O)cc2)c1=O` [Example 353, methyl 4-amino-(1-(4-(1R)-1-hydroxyethyl)phenyl)-7-cyclopropyl-2-oxo-1,2-dihydroquinoline-3-carboxylate], for which the negative logarithm of the IC50 (pIC50) is 8.90.

As for `CCc1ccccc1-n1c(=O)c(C(=O)OC)c(N)c2ccc(C(F)(F)F)cc21` [Example 145, methyl 4-amino-1-(2-ethylphenyl)-2-oxo-7-(trifluoromethyl)-1,2-dihydroquinoline-3-carboxylate], the negative logarithm of the IC50 (pIC50) is 8.34.

Take `COC(=O)c1c(N)c2ccc(C3CC3)nc2n(-c2ccc(C(C)O)cc2)c1=O` (centres unmarked) [Example 360, methyl 4-amino-7-cyclopropyl-1-(4-(1-hydroxyethyl)phenyl)-2-oxo-1,2-dihydro-1,8-naphthyridine-3-carboxylate]: the negative-log IC50 (pIC50) was 8.90.

Regarding `COC(=O)c1c(N)c2ccc(Br)cc2n(-c2ccc(C(C)O)nc2)c1=O` (centres unmarked) [Example 291, methyl 4-amino-1-(6-(1-hydroxyethyl)pyridin-3-yl)-2-oxo-7-bromo-1,2-dihydroquinoline-3-carboxylate], the pIC50 was 8.66.

With `COC(=O)c1c(N)c2ccc(I)cc2n(-c2cnc(Cl)cc2C)c1=O` [Example 225, methyl 4-amino-1-(6-chloro-4-methylpyridin-3-yl)-7-iodo-2-oxo-1,2-dihydroquinoline-3-carboxylate], the negative-log IC50 (pIC50) was 8.51.

As to `COC(=O)c1c(N)c2ccc(Br)nc2n(-c2ccc(N)nc2)c1=O` [Example 241, methyl 4-amino-1-(6-aminopyridin-3-yl)-7-bromo-2-oxo-1,2-dihydro-1,8-naphthyridine-3-carboxylate], the pIC50 was 8.85.

As to `COC(=O)c1c(N)c2ccc(Br)nc2n(-c2ccc(Cl)c3cnccc23)c1=O` [Example 289, methyl 4-amino-1-(8-chloroisoquinolin-5-yl)-7-bromo-2-oxo-1,2-dihydro-1,8-naphthyridine-3-carboxylate], the pIC50 was 8.98.

As for `C=Cc1ccc(-n2c(=O)c(C(=O)OC)c(N)c3ccc(C(F)(F)F)cc32)cc1` [Example 132, methyl 4-amino-2-oxo-7-(trifluoromethyl)-1-(4-vinylphenyl)-1,2-dihydroquinoline-3-carboxylate], the pIC50 was 8.31.

The values above are taken from US20250221979A1, “NOVEL HETEROCYCLIC COMPOUND” (SHOUYAO HOLDINGS (BEIJING) CO., LTD., priority 2022, published 2025).
